Reference: patent publication US20230078764A1 (Yumanity Therapeutics, Inc., priority 2019, published 2023)
Read-outs that look alike come from different tables or passages of the source.

Legend:
human SCD5 = molecular target: T1, human SCD5 (Homo sapiens, UniProt Q86SK9); test: Growth inhibition of yeast strain expressing human SCD5 as sole desaturase (OLE1 deleted), OD600 readout; type: cell-based
T1 construct: expressed in transfected cells; host or cells: yeast strain with OLE1 deleted, plasmid-borne human SCD5 (selected in SD-Ura)
T1 sequence (Q86SK9 1-330): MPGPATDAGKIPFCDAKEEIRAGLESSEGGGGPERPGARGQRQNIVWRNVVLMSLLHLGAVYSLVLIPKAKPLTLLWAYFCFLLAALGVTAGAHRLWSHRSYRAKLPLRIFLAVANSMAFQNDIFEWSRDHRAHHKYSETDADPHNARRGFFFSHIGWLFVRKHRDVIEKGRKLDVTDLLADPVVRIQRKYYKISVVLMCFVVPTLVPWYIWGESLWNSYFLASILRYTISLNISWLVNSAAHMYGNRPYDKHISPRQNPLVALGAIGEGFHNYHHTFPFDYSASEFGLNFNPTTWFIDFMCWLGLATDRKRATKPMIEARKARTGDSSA

human SCD1 = molecular target: T2, human SCD1 (Homo sapiens, UniProt O00767); test: Growth inhibition of yeast strain expressing human SCD1 as sole desaturase (OLE1 deleted), OD600 readout; type: cell-based
T2 construct: expressed in transfected cells; host or cells: yeast strain with OLE1 deleted, plasmid-borne human SCD1 (selected in SD-Ura)
T2 sequence (O00767 1-359): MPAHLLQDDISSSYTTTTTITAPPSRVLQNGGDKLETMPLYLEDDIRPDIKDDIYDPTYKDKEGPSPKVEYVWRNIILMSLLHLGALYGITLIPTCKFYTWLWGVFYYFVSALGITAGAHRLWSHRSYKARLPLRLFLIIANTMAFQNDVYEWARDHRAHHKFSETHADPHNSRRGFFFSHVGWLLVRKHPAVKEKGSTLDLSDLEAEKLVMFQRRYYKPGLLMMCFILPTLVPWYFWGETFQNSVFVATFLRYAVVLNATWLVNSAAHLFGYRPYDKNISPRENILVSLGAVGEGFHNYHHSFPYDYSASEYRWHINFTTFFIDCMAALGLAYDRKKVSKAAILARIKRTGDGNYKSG

[1] = yeast strain expressing human SCD5 as sole desaturase, growth (OD600) after 40 h at 30° C., read-out: SCD5 IC50
[2] = yeast strain expressing human SCD1 as sole desaturase, growth (OD600) after 40 h at 30° C., read-out: SCD1 IC50

Structure (SMILES) | IC50 (human SCD5; [1]) [nM] | IC50 (human SCD1; [2]) [nM] | IC50 (human SCD5; SCD5 IC50) [nM] | IC50 (human SCD1; SCD1 IC50) [nM]
Cn1cccc(C(=O)Nc2ccc(Cc3ccc(F)c(Cl)c3)cn2)c1=O [Compound 331] | 10 | 130 | – | –
Cc1nccc(C(=O)Nc2ccc(Cc3cc(F)cc(F)c3)cn2)n1 [Compound 242] | 10 | 50 | – | –
Cn1cccc(C(=O)Nc2ccc(Cc3cc(F)cc(F)c3)cn2)c1=O [Compound 329] | 10 | 100 | – | –
Cn1cc(C(=O)Nc2ccc(Cc3cncc(F)c3)cn2)ccc1=O [Compound 453] | > 45000 | 180 | – | –
CCn1cc(C(=O)Nc2ccc(Oc3ccc(F)c(Cl)c3)cn2)ccc1=O [Compound 169, N-[5-(3-chloro-4-fluorophenoxy)pyridin-2-yl]-1-ethyl-6-oxo-1,6-dihydropyridine-3-carboxamide] | 2480 | > 45000 | – | –
O=C(Nc1ccc(Cc2cccc(F)c2)cn1)c1ccc2nncn2c1 [Compound 151, N-(5-(3-fluorobenzyl)pyridin-2-yl)-[1,2,4]triazolo[4,3-a]pyridine-6-carboxamide] | 80 | 1340 | – | –
CN1N=C(C(=O)Nc2ccc(CC3CC3)cn2)CCC1=O [Compound 468] | > 45000 | > 45000 | – | –
Cn1cc(C(=O)N2CCC(Oc3cccc(Cl)c3)CC2)ccc1=O [Compound 464] | > 45000 | > 45000 | – | –
COc1cccc(Cc2cnc(NC(=O)c3ccc(=O)n(C)n3)s2)c1 [Compound 212, N-(5-(3-methoxybenzyl)thiazol-2-yl)-1-methyl-6-oxo-1,6-dihydropyridazine-3-carboxamide] | 40 | 150 | – | –
Cn1cc(NC(=O)N2CCC(Oc3cccc(Cl)c3)CC2)ccc1=O [Compound 305] | 6940 | 27000 | – | –
Cn1nc(C(=O)Nc2ccc(CCc3cccc(Cl)c3)cn2)ccc1=O [Compound 297] | 1200 | > 45000 | – | –
O=C(Nc1ccc(Cc2ccc(F)c(Cl)c2)cn1)c1ccc(=O)n(C2CC2)n1 [Compound 76, N-(5-(3-chloro-4-fluorobenzyl)pyridin-2-yl)-1-cyclopropyl-6-oxo-1,6-dihydropyridazine-3-carboxamide] | 10 | 10 | – | –
Cn1cc(C(=O)Nc2ccc(Cc3ccc(F)cc3)cn2)ccc1=O [Compound 53, N-(5-(4-fluorobenzyl)pyridin-2-yl)-1-methyl-6-oxo-1,6-dihydropyridine-3-carboxamide] | – | – | 10 | 280
Cn1cc(C(=O)Nc2ccc(CNc3cccc(Cl)c3)cn2)ccc1=O [Compound 173, N-(5-((3-Chlorophenylamino)methyl)pyridin-2-yl)-1-methyl-6-oxo-1,6-dihydropyridine-3-carboxamide] | 150 | 1720 | – | –
O=C(Nc1ccc(Cc2cccc(F)c2)cn1)c1cc(Br)sn1 [Compound 334] | 9390 | > 45000 | – | –
CCn1cc(C(=O)Nc2ccc(Cc3ccc(F)cc3)cn2)ccc1=O [Compound 81, 1-ethyl-N-(5-(4-fluorobenzyl)pyridin-2-yl)-6-oxo-1,6-dihydropyridine-3-carboxamide] | 2420 | > 45000 | – | –
Cc1ccc(Cc2ccc(NC(=O)c3ccc(=O)n(C)c3)nc2)cn1 [Compound 449] | > 45000 | > 45000 | – | –
CN1N=C(C(=O)Nc2ncc(Cc3ccc(F)cc3F)s2)CCC1=O [Compound 234, N-(5-(2,4-difluorobenzyl)thiazol-2-yl)-1-methyl-6-oxo-1,4,5,6-tetrahydropyridazine-3-carboxamide] | 1440 | 6300 | – | –
O=C(Nc1ccc(Cc2cccc(Cl)c2)cn1)c1ccc(Br)nc1 [Compound 299] | 3790 | > 45000 | – | –
Cn1cc(C(=O)Nc2ccc(Cc3cccc(F)c3)cc2)ccc1=O [Compound 5, N-(4-(3-fluorobenzyl)phenyl)-1-methyl-6-oxo-1,6-dihydropyridine-3-carboxamide] | 1870 | 3340 | – | –
Cn1nc(C(=O)Nc2ncc(Cc3cccc(F)c3)s2)ccc1=O [Compound 202, N-(5-(3-fluorobenzyl)thiazol-2-yl)-1-methyl-6-oxo-1,6-dihydropyridazine-3-carboxamide] | 20 | 20 | – | –
Cn1nc(C(=O)Nc2ccc(Oc3ccc(F)c(Cl)c3)cn2)ccc1=O [Compound 168, N-[5-(3-chloro-4-fluorophenoxy)pyridin-2-yl]-1-methyl-6-oxo-1,6-dihydropyridazine-3-carboxamide] | 1720 | > 45000 | – | –
CCn1nc(C(=O)Nc2ccc(Cc3cccc(Cl)c3)nn2)ccc1=O [Compound 185, N-(6-(3-chlorobenzyl)pyridazin-3-yl)-1-ethyl-6-oxo-1,6-dihydropyridazine-3-carboxamide] | 8590 | > 45000 | – | –
Cn1cc(C(=O)Nc2ccc(Cc3ccc(F)cc3)cn2)ccc1=O [Compound 248] | 10 | 200 | – | –
COC(=O)c1ccc(C(=O)Nc2ccc(COc3ccc(F)c(Cl)c3)cn2)nc1 [Compound 428] | > 45000 | > 45000 | – | –
O=C(Nc1ccc(Nc2cccc(F)c2)cn1)c1ccc(=O)n(C2CC2)n1 [Compound 304] | 2700 | > 45000 | – | –
O=C(Nc1ccc(CO)nc1)c1ccc(Cc2cccc(Cl)c2)cn1 [Compound 132, 5-(3-Chlorobenzyl)-N-(6-(hydroxymethyl)pyridin-3-yl)picolinamide] | 10 | 10 | – | –
O=C(Nc1ccc(Cc2cccc(Cl)c2)cn1)N1CCC2(CC1)COC2 [Compound 393] | > 45000 | > 45000 | – | –
CN1N=C(C(=O)Nc2ccc(NCc3cc(F)cc(C#N)c3)nc2)CCC1=O [Compound 439] | > 45000 | > 45000 | – | –

Continued, in another order:

IC50 (human SCD5; [1]) [nM] | IC50 (human SCD1; [2]) [nM] | Structure (SMILES) | IC50 (human SCD5; SCD5 IC50) [nM] | IC50 (human SCD1; SCD1 IC50) [nM]
42 | 37 | CC(O)c1cnc(C(=O)Nc2ccc(Cc3ccc(F)c(F)c3)cn2)nc1 (centres unmarked) [Compound 604] | – | –
25 | 2700 | Cn1nc(C(=O)Nc2ccc(Cc3cc(F)cc(F)c3Cl)cn2)ccc1=O [Compound 680] | – | –
73 | 220 | N#Cc1cc(Cl)cc(Cc2ccc(NC(=O)c3ccnnc3)nc2)c1 [Compound 669] | – | –
120 | 430 | Cn1c(C(=O)Nc2ccc(Cc3cc(F)cc(F)c3)cn2)coc1=O [Compound 509] | – | –
200 | 200 | Cn1ccc(C(=O)Nc2ccc(Cc3cc(F)cc(C#N)c3)cn2)cc1=O [Compound 620] | – | –
1300 | 3200 | N#Cc1nc(C(=O)Nc2ccc(Cc3cccc(F)c3)cn2)cs1 [Compound 640] | – | –
600 | 3400 | COc1cc(Cc2ccc(NC(=O)c3ccc(=O)n(C)c3)nc2)ccn1 [Compound 613] | – | –
18 | 2200 | N#Cc1cnc(C(=O)Nc2ccc(Cc3ccc(F)c(F)c3)cn2)cn1 [Compound 591] | – | –
109 | 5800 | Cn1cc(NC(=O)c2ccc(COc3ccc(F)c(Cl)c3)cn2)ccc1=O [Compound 488] | – | –
10 | 12 | O=C(Nc1ccc(Cc2ccc(F)c(F)c2)cn1)c1cncc(CO)c1 [Compound 503] | – | –
18000 | > 45000 | CN1N=C(C(=O)Nc2ccc(Cc3ccc(C#N)c(Cl)c3)cn2)CCC1=O [Example 33, N-(5-(3-chloro-4-cyanobenzyl)pyridin-2-yl)-1-methyl-6-oxo-1,4,5,6-tetrahydropyridazine-3-carboxamide] | – | –
544 | > 45000 | CCn1nc(C(=O)Nc2ccc(Cc3cccc(Cl)c3)cn2)cc1O [Compound 489] | – | –
39 | > 45000 | Cc1cc(C(=O)Nc2ccc(Cc3cc(F)cc(C#N)c3)cn2)cnc1C#N [Compound 663] | – | –
370 | 2400 | Cn1cc(C(=O)Nc2ccc(Cc3ccc(F)c(C#N)c3)cn2)ccc1=O [Compound 550] | – | –
320 | 5900 | Cn1ccc(C(=O)Nc2ccc(Cc3ccc(F)c(F)c3)cn2)cc1=O [Compound 515] | – | –
620 | 4800 | N#Cc1ccc(C(=O)Nc2ccc(CNc3cccc(Cl)c3)cn2)cn1 [Compound 482] | – | –
10 | 92 | Cn1cc(C(=O)Nc2ccc(Cc3cccc(F)c3)cn2)n(C)c1=O [Compound 642] | – | –
320 | 1100 | Cn1ccc(C(=O)Nc2ccc(Cc3cc(F)ccc3F)cn2)cc1=O [Compound 630] | – | –
480 | > 45000 | N#Cc1cc(F)cc(Cc2ccc(NC(=O)c3ccc(C#N)nc3)nc2)c1 [Compound 535] | – | –
10 | 370 | Cn1nc(C(=O)Nc2ccc(Cc3ccc(F)c(C(F)F)c3)cn2)ccc1=O [Compound 575] | – | –
